Data taken from ChEMBL document CHEMBL1143058, “Evaluation of a diverse set of potential P1 carboxylic acid bioisosteres in hepatitis C virus NS3 protease inhibitors” (Bioorg Med Chem, 2007).

Columns and labels:
[1] = Inhibition of HCV NS3 protease in presence of pH 7.5 HEPES buffer; set-up: species or system Hepacivirus hominis
Hepatitis C virus = assay: Inhibition of HCV by subgenomic HCV replication assay; assay type: functional, organism-based, Hepacivirus hominis
[2] = Inhibition of HCV NS3 protease in presence of pH 6.0 buffer; set-up: species or system Hepacivirus hominis
[3] = Inhibition of HCV NS3 protease in presence of pH 7.0 buffer; set-up: species or system Hepacivirus hominis
[4] = Inhibition of HCV NS3 protease in presence of pH 8.0 buffer; set-up: species or system Hepacivirus hominis

Row | Ki [1] [nM] | EC50 (Hepatitis C virus) [nM] | Ki [2] [nM] | Ki [3] [nM] | Ki [4] [nM] | SMILES
1 | 20 | 140 | 0.12 | 0.68 | 8.7 | C=C[C@@H]1C[C@]1(NC(=O)[C@@H]1C[C@@H](Oc2cc(-c3ccccc3)nc3cc(OC)ccc23)CN1C(=O)[C@@H](NC(=O)OC(C)(C)C)C(C)(C)C)C(=O)O
2 | 6 | 1200 | 0.14 | 0.51 | 10.8 | C=C[C@@H]1C[C@]1(NC(=O)[C@@H]1C[C@@H](Oc2cc(-c3ccccc3)nc3cc(OC)ccc23)CN1C(=O)[C@@H](NC(=O)OC(C)(C)C)C(C)(C)C)C(=O)NC#N
3 | 0.22 | 6 | 0.006 | 0.056 | 0.39 | C=C[C@@H]1C[C@]1(NC(=O)[C@@H]1C[C@@H](Oc2cc(-c3ccccc3)nc3cc(OC)ccc23)CN1C(=O)[C@@H](NC(=O)OC(C)(C)C)C(C)(C)C)C(=O)NS(=O)(=O)c1ccc(C)cc1
4 | 560 | > 10000 | 28 | 113 | 287 | C=C[C@@H]1C[C@]1(NC(=O)[C@@H]1C[C@@H](Oc2cc(-c3ccccc3)nc3cc(OC)ccc23)CN1C(=O)[C@@H](NC(=O)OC(C)(C)C)C(C)(C)C)C(=O)NNc1ccccc1
5 | 880 | > 10000 |  |  |  | C=C[C@@H]1C[C@]1(NC(=O)[C@@H]1C[C@@H](Oc2cc(-c3ccccc3)nc3cc(OC)ccc23)CN1C(=O)[C@@H](NC(=O)OC(C)(C)C)C(C)(C)C)C(=O)NNC(=O)Cc1ccccc1
6 | 821 | > 10000 | 7.7 | 294 | 343 | C=C[C@@H]1C[C@]1(NC(=O)[C@@H]1C[C@@H](Oc2cc(-c3ccccc3)nc3cc(OC)ccc23)CN1C(=O)[C@@H](NC(=O)OC(C)(C)C)C(C)(C)C)C(=O)Nc1nccs1
7 | 2200 | > 10000 |  |  |  | C=C[C@@H]1C[C@]1(NC(=O)[C@@H]1C[C@@H](Oc2cc(-c3ccccc3)nc3cc(OC)ccc23)CN1C(=O)[C@@H](NC(=O)OC(C)(C)C)C(C)(C)C)c1nnc(-c2ccccc2)o1
8 | 214 | 2800 |  |  |  | C=C[C@@H]1C[C@]1(NC(=O)[C@@H]1C[C@@H](Oc2cc(-c3ccccc3)nc3cc(OC)ccc23)CN1C(=O)[C@@H](NC(=O)OC(C)(C)C)C(C)(C)C)c1nnn[nH]1
9 | 1600 | > 10000 |  |  |  | C=C[C@@H]1C[C@]1(NC(=O)[C@@H]1C[C@@H](Oc2cc(-c3ccccc3)nc3cc(OC)ccc23)CN1C(=O)[C@@H](NC(=O)OC(C)(C)C)C(C)(C)C)C(=O)NNC(=O)c1ccccc1
10 | 9 | 1800 |  |  |  | C=C[C@@H]1C[C@]1(NC(=O)[C@@H]1C[C@@H](Oc2cc(-c3ccccc3)nc3cc(OC)ccc23)CN1C(=O)[C@@H](NC(=O)OC(C)(C)C)C(C)(C)C)C(=O)N[S+]([O-])c1ccc(C)cc1 (stereo not given in full)
11 | 425 | 3800 |  |  |  | C=C[C@@H]1C[C@]1(NC(=O)[C@@H]1C[C@@H](Oc2cc(-c3ccccc3)nc3cc(OC)ccc23)CN1C(=O)[C@@H](NC(=O)OC(C)(C)C)C(C)(C)C)C(=O)NO
12 | 140 | 1600 |  |  |  | C=C[C@@H]1C[C@]1(NC(=O)[C@@H]1C[C@@H](Oc2cc(-c3ccccc3)nc3cc(OC)ccc23)CN1C(=O)[C@@H](NC(=O)OC(C)(C)C)C(C)(C)C)C(=O)NNS(=O)(=O)c1ccccc1
13 | 0.058 | 0.9 |  |  |  | C=C[C@@H]1C[C@]1(NC(=O)[C@@H]1C[C@@H](Oc2cc(-c3ccccc3)nc3cc(OC)ccc23)CN1C(=O)[C@@H](NC(=O)OC(C)(C)C)C(C)(C)C)C(=O)NS(=O)(=O)C1CC1
14 | 0.34 | 6 |  |  |  | C=C[C@@H]1C[C@]1(NC(=O)[C@@H]1C[C@@H](Oc2cc(-c3ccccc3)nc3cc(OC)ccc23)CN1C(=O)[C@@H](NC(=O)OC(C)(C)C)C(C)(C)C)C(=O)NS(=O)(=O)c1ccccc1
15 | 1690 | > 2000 | 71 | 349 | 734 | C=C[C@@H]1C[C@]1(NC(=O)[C@@H]1C[C@@H](Oc2cc(-c3ccccc3)nc3cc(OC)ccc23)CN1C(=O)[C@@H](NC(=O)OC(C)(C)C)C(C)(C)C)C(=O)NCC(F)(F)F
16 | 1100 | > 10000 |  |  |  | C=C[C@@H]1C[C@]1(NC(=O)[C@@H]1C[C@@H](Oc2cc(-c3ccccc3)nc3cc(OC)ccc23)CN1C(=O)[C@@H](NC(=O)OC(C)(C)C)C(C)(C)C)C(=O)NNCc1ccccc1
